Assay results reported in ChEMBL document CHEMBL1201862, “PubChem BioAssay data set” (2004).
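96-well plates; 48 h exposure; 5 concentrations. Endpoints by linear interpolation between flanking doses. Not reached: highest tested concentration assigned. Here, GI50 denotes the concentration required for 50% inhibition of growth.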 Activity calls are given as the source filed them. Cut-off read from the data, not from the text of the source: active = GI50 up to about 1.1 µM and inactive = higher.

Tests used:
Assay in all cases: growth of human tumour cells (NCI), 48 h
OVCAR-8 = system: OVCAR-8
SK-MEL-2 = system: SK-MEL-2
M14 = system: M14
UACC-257 = system: UACC-257
OVCAR-3 = system: OVCAR-3
SNB-19 = system: SNB-19
SW-620 = system: SW-620
HCT-15 = system: HCT-15
HCC 2998 = system: HCC 2998
KM12 = system: KM12
HT-29 = system: HT-29
UACC-62 = system: UACC-62
HL-60 = system: HL-60
HOP-92 = system: HOP-92
IGROV-1 = system: IGROV-1
NCI-H460 = system: NCI-H460
TK-10 = system: TK-10
HOP-62 = system: HOP-62
PC-3 = system: PC-3
COLO 205 = system: COLO 205
A549 = system: A549
NCI-H522 = system: NCI-H522
SF-268 = system: SF-268
SF-539 = system: SF-539
786-0 = system: 786-0
SNB-75 = system: SNB-75
OVCAR-5 = system: OVCAR-5
DU-145 = system: DU-145
EKVX = system: EKVX
MCF7 = system: MCF7
ACHN = system: ACHN
NCI-H23 = system: NCI-H23
CCRF-CEM = system: CCRF-CEM
HCT-116 = system: HCT-116
UO-31 = system: UO-31
MOLT-4 = system: MOLT-4
K562 = system: K562
T47D = system: T47D
SK-MEL-28 = system: SK-MEL-28
RXF 393 = system: RXF 393
SK-OV-3 = system: SK-OV-3
CAKI-1 = system: CAKI-1
MDA-N = system: MDA-N
SK-MEL-5 = system: SK-MEL-5
Malme-3M = system: Malme-3M
LOX IMVI = system: LOX IMVI
SN12C = system: SN12C
MDA-MB-231 = system: MDA-MB-231
RPMI-8226 = system: RPMI-8226
Hs-578T = system: Hs-578T
U-251 = system: U-251
SF-295 = system: SF-295
SR = system: SR
OVCAR-4 = system: OVCAR-4
NCI-H226 = system: NCI-H226
A498 = system: A498
MDA-MB-435 = system: MDA-MB-435
NCI/ADR-RES = system: NCI/ADR-RES

`COc1cc([C@@H]2c3cc4c(cc3[C@@H](Nc3ccc(NC(=O)c5cc([N+](=O)[O-])cn5C)cc3)[C@H]3COC(=O)[C@H]23)OCO4)cc(OC)c1O` was tested, and the GI50 (OVCAR-8) was 0.141 µM (active), the GI50 (SK-MEL-2) was 1.21 µM (inactive) and the GI50 (M14) was 0.0731 µM (active). The GI50 (UACC-257) was 0.581 µM (active), the GI50 (OVCAR-3) was 0.427 µM (active) and the GI50 (SNB-19) was 0.0538 µM (active). For the same compound, the GI50 (SW-620) was 0.135 µM (active), the GI50 (HCT-15) was 0.365 µM and the GI50 (HCC 2998) was 0.243 µM (active). For the same compound, the GI50 (KM12) was 0.22 µM (active), the GI50 (HT-29) was 0.171 µM (active) and the GI50 (UACC-62) was 0.0828 µM (active). For the same compound, the GI50 (HL-60) was 0.0176 µM (active), the GI50 (HOP-92) was 0.132 µM (active) and the GI50 (IGROV-1) was 0.173 µM (active). For the same compound, the GI50 (NCI-H460) was < 0.01 µM (active), the GI50 (TK-10) was 0.348 µM (active) and the GI50 (HOP-62) was 0.0179 µM (active). The GI50 (PC-3) was 0.188 µM (active), the GI50 (COLO 205) was 0.254 µM (active) and the GI50 (A549) was < 0.0124 µM (active). For the same compound, the GI50 (NCI-H522) was 0.272 µM (active), the GI50 (SF-268) was 0.191 µM (active) and the GI50 (SF-539) was 0.0577 µM (active). The GI50 (786-0) was 0.0491 µM (active), the GI50 (SNB-75) was 0.0498 µM (active) and the GI50 (OVCAR-5) was 0.419 µM (active). The GI50 (DU-145) was 0.0143 µM (active), the GI50 (EKVX) was 0.333 µM (active) and the GI50 (MCF7) was < 0.01 µM (active). For the same compound, the GI50 (ACHN) was 0.0213 µM (active), the GI50 (NCI-H23) was 0.0385 µM (active) and the GI50 (CCRF-CEM) was < 0.01 µM (active). The GI50 (HCT-116) was 0.114 µM (active), the GI50 (UO-31) was 0.244 µM (active) and the GI50 (MOLT-4) was < 0.01 µM (active). For the same compound, the GI50 (K562) was 0.108 µM (active), the GI50 (T47D) was 0.0266 µM (active) and the GI50 (SK-MEL-28) was 1.22 µM (inactive). The GI50 (RXF 393) was 0.243 µM (active).

`CCN(CC)CCC/N=c1\c2cc(OC)ccc2[nH]c2c([N+](=O)[O-])ccc(NCCCN(CC)CC)c12` was tested, and the GI50 (SK-OV-3) was 3.08 µM (inactive), the GI50 (OVCAR-8) was 1.03 µM (active) and the GI50 (M14) was > 10 µM (inactive). For the same compound, the GI50 (UACC-257) was > 10 µM (inactive), the GI50 (CAKI-1) was 9.66 µM (inactive) and the GI50 (SW-620) was 1.69 µM (inactive). For the same compound, the GI50 (HCT-15) was 1.43 µM, the GI50 (HCC 2998) was 1.49 µM (inactive) and the GI50 (KM12) was 1.52 µM (inactive). The GI50 (HT-29) was 1.6 µM (inactive), the GI50 (UACC-62) was > 10 µM (inactive) and the GI50 (HL-60) was 0.3 µM (active). The GI50 (IGROV-1) was 3.42 µM (inactive), the GI50 (MDA-N) was 5.77 µM (inactive) and the GI50 (TK-10) was 8.24 µM (inactive). The GI50 (SK-MEL-5) was 9.42 µM (inactive), the GI50 (HOP-62) was 4.47 µM (inactive) and the GI50 (PC-3) was 1.47 µM (inactive). For the same compound, the GI50 (Malme-3M) was > 10 µM (inactive), the GI50 (COLO 205) was 5.13 µM (inactive) and the GI50 (LOX IMVI) was 1.34 µM (inactive). For the same compound, the GI50 (A549) was 1.78 µM (inactive), the GI50 (SF-268) was 2.87 µM (inactive) and the GI50 (786-0) was 1.45 µM (inactive). For the same compound, the GI50 (SNB-75) was > 10 µM (inactive), the GI50 (DU-145) was 5.13 µM (inactive) and the GI50 (SN12C) was 2.04 µM (inactive). For the same compound, the GI50 (MDA-MB-231) was 1.49 µM (inactive), the GI50 (EKVX) was 3.97 µM (inactive) and the GI50 (MCF7) was 1.54 µM (inactive). For the same compound, the GI50 (NCI-H23) was 2.26 µM (inactive), the GI50 (CCRF-CEM) was 0.479 µM (active) and the GI50 (MOLT-4) was 0.484 µM (active). For the same compound, the GI50 (K562) was 1.77 µM (inactive), the GI50 (T47D) was > 10 µM (inactive) and the GI50 (RPMI-8226) was 1.72 µM (inactive). The GI50 (SK-MEL-28) was > 10 µM (inactive) and the GI50 (RXF 393) was 1.95 µM (inactive).

`O=C(/C=C\c1ccccc1)N1CCc2ccccc2C1` was tested, and the GI50 (SK-OV-3) was > 100 µM (inactive), the GI50 (OVCAR-8) was 51.9 µM (inactive) and the GI50 (SK-MEL-2) was 31.3 µM (inactive). The GI50 (M14) was 60.5 µM (inactive), the GI50 (UACC-257) was 38.9 µM (inactive) and the GI50 (Hs-578T) was 60.7 µM (inactive). For the same compound, the GI50 (U-251) was 80.7 µM (inactive), the GI50 (SNB-19) was 67.8 µM (inactive) and the GI50 (CAKI-1) was 67.1 µM (inactive). For the same compound, the GI50 (SW-620) was 63.5 µM (inactive), the GI50 (HCT-15) was 55.8 µM and the GI50 (HCC 2998) was > 100 µM (inactive). For the same compound, the GI50 (KM12) was 36.5 µM (inactive), the GI50 (HT-29) was 51.4 µM (inactive) and the GI50 (UACC-62) was 43.4 µM (inactive). The GI50 (HL-60) was 29.8 µM (inactive), the GI50 (HOP-92) was 42.6 µM (inactive) and the GI50 (IGROV-1) was 73.8 µM (inactive). For the same compound, the GI50 (NCI-H460) was 60.3 µM (inactive), the GI50 (TK-10) was > 100 µM (inactive) and the GI50 (SF-295) was 34.9 µM (inactive). For the same compound, the GI50 (SK-MEL-5) was 17.1 µM (inactive), the GI50 (SR) was 24.1 µM (inactive) and the GI50 (OVCAR-4) was 93.1 µM (inactive). For the same compound, the GI50 (HOP-62) was > 100 µM (inactive), the GI50 (PC-3) was 34.4 µM (inactive) and the GI50 (NCI-H226) was > 100 µM (inactive). The GI50 (COLO 205) was 20.6 µM (inactive), the GI50 (LOX IMVI) was 79.1 µM (inactive) and the GI50 (A498) was 53.2 µM (inactive). The GI50 (SF-268) was 49.7 µM (inactive), the GI50 (SF-539) was 49.8 µM (inactive) and the GI50 (786-0) was 87.5 µM (inactive). For the same compound, the GI50 (SNB-75) was 52.7 µM (inactive), the GI50 (MDA-MB-435) was 27.2 µM (inactive) and the GI50 (DU-145) was > 100 µM (inactive). For the same compound, the GI50 (NCI/ADR-RES) was 44 µM (inactive), the GI50 (MDA-MB-231) was > 100 µM (inactive) and the GI50 (EKVX) was 32.4 µM (inactive). For the same compound, the GI50 (MCF7) was 49.7 µM (inactive), the GI50 (ACHN) was 38.2 µM (inactive) and the GI50 (NCI-H23) was 14.9 µM (inactive). The GI50 (CCRF-CEM) was 29 µM (inactive), the GI50 (HCT-116) was 34.6 µM (inactive) and the GI50 (UO-31) was 39 µM (inactive). For the same compound, the GI50 (K562) was 19.4 µM (inactive), the GI50 (T47D) was 20.1 µM (inactive) and the GI50 (RPMI-8226) was 23.5 µM (inactive). The GI50 (SK-MEL-28) was 61 µM (inactive) and the GI50 (RXF 393) was 44.4 µM (inactive).
